How the values were obtained:
HPSE [1] = biological target: T1, HPSE (Homo sapiens, UniProt Q9Y251); experiment: X-ray crystallography, ligand soaking of HPSE crystals; details: crystal soaking
T1 sequence (Q9Y251 36-109 limits assumed): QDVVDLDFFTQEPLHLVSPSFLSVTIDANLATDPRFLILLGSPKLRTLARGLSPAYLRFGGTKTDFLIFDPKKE
T1 sequence (Q9Y251 158-543 limits assumed): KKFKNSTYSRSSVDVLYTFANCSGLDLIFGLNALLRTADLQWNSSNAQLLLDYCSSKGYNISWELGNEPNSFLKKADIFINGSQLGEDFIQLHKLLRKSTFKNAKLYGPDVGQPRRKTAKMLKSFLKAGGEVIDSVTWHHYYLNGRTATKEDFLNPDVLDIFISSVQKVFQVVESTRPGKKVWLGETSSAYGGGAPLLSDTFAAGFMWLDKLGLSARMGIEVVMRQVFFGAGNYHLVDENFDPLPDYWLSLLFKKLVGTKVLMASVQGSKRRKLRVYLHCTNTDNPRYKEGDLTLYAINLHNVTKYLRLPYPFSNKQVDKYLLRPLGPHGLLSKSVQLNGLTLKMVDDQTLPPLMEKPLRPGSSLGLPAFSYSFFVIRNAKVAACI
From the text: Xray diffraction data were collected at 100 K at beamlines i03 (HPSE-2, HPSE-3, HPSE-4, EcGUSB-1, BpHep-3), i04 (AcGH79-2, BpHep-2) and i04-1 (Apo-AcGH79, AcGH79-1, AcGH79-3) of the Diamond Light Source UK. Reflections were autoprocessed using the XIA2 pipeline. Complexes were solved by directly refining against their unliganded structures where isomorphous, or else solved by molecular replacement with PHASER (search model PDB accessions: 5E98 (HPSE), 3VNY (AcGH79), 3K46 (EcGUSB), 5BWI (BpHep)). […] Ligand coordinates were built using jLigand. Diagrams were generated using PyMOL.
HPSE—Well diffracting crystals of HPSE were obtained by the sitting-drop vapor-diffusion method at 20° C. using a well solution containing 0.1 M MES pH 5.5, 0.1 M MgCl2, 17% (w/v) PEG 3350, and a protein to well solution ratio of 200 nl:500 nl. Crystals typically appeared after 1 week. Inhibitor ligand complexes were obtained by transferring HPSE crystals to drops of well solution supplemented with 25% (v/v) ethylene glycol and 1-5 mM inhibitor. Crystals were incubated with ligand for ˜2-4 h, then directly harvested and flash-cooled in LN2 for data collection.
To better understand the molecular basis of interaction between our inhibitors and their targets, we turned to X-ray crystallography, using ligand soaking to derivatize enzymes in crystallo.

HPSE [2] = biological target: T1, HPSE; experiment: HSPG digest assay, recombinant HPSE; type: biochemical
Method: ECM coated 35 mm culture dishes containing ^35S labelled HS were prepared as previously described (Vlodavsky et al., Curr. Protoc. Cell. Biol., Chapter 10, Unit 10, 14). Briefly, bovine corneal endothelial cells were plated at an initial density of 2×10^5 cells/ml, with 4% dextran T-40 (Sigma) included in the growth medium. Na2^35SO4 (25 μCi/ml) was added to the incubation medium on days 2 and 5 after seeding. On day 12, subendothelial ECM is exposed by dissolving the cells with PBS containing 0.5% Triton X-100 and 20 mM NH4OH, followed by four washes with PBS. For HS-degradation assays, ECM coated dishes were incubated with 200 ng recombinant HPSE in 1 mL reaction mixture (10 mM buffer Phosphate-Citrate pH 6.0, 50 mM NaCl, 1 mM DTT, 1 mM CaCl2) containing HPSE inhibitors or DMSO control. Plates were incubated at 37° C. for 5 h, then assay medium collected and applied to a 0.9×30 cm Sepharose 6B size exclusion column. The Sepharose 6B column was eluted with PBS, and ^35S radioactivity of 0.2 mL fractions quantitated using a liquid scintillation analyzer (Packard BioScience). Digest assays with U87 cell lysates were carried out in a similar fashion, except plates were incubated for 18 h with cell extracts prepared from 1×10^6 U87 glioma cells lysed by 3× freeze/thaw cycles.
The compounds of the invention were assessed against HPSE degradation of bona fide HSPGs in a physiologically relevant ECM-like environment. Cultured bovine corneal […] cells secrete a subendothelial basement membrane material rich in HSPGs, and their growth in the presence of ^35SO4^2− results in ^35S radiolabeled HSPGs (Vlodavsky et al., Curr Protoc Cell Biol, Chapter 10, Unit 10, 4, 2001). H^35S chains attached to these HSPGs are detectable after solubilization by HPSE, with enzyme inhibition leading to a corresponding reduction of signal.

HPSE [3] = biological target: T1, HPSE; experiment: Fondaparinux cleavage assay; type: biochemical
HPSE [4] = biological target: T1, HPSE; experiment: cABPP Assay 1, recombinant HPSE; type: biochemical
human platelet HPSE = biological target: T2, human platelet HPSE (Homo sapiens, UniProt Q9Y251); experiment: cABPP with fluorescence quantitation, platelet lysates, HPSE; type: biochemical; details: read-out: IC50 platelet HPSE inhibition
T2 construct: endogenous in cells; host or cells: human platelet lysates
T2 sequence (Q9Y251 158-543 limits assumed): T1 sequence (Q9Y251 158-543 limits assumed)
T2 sequence (Q9Y251 36-109 limits assumed): T1 sequence (Q9Y251 36-109 limits assumed)
Method: ABP labelling reactions were carried out in Mcllvaine buffer (pH 5.5), 300 mM NaCl. For recombinant proteins 200 fmol of EcGH2, BpHep, AcGH79, HPSE or proHPSE was used (20 nM in 10 μl final reaction volume). For labeling cell lysates, 4-20 μg total protein was used. Labeling reactions were initiated by the addition of ABP compounds 7, 8 or 9 to a final concentration of 100 nM (unless otherwise specified), before incubation for 30 min at 37° C. with shaking. Following labeling, samples were denatured by boiling with Laemmli buffer for 5 min and resolved by SDS-PAGE. Gels were scanned using Typhoon-5 laser scanner platform (Cytiva), using the λEX 635 nm laser and 670BP30 emission filter. For competitive ABPP (cABPP) experiments, protein mixtures were preincubated with inhibitor (or buffer only control) for 1 h at 37° C. with shaking, before the addition of 7 to a final concentration of 100 nM, and subsequent incubation for 30 min at 37° C. with shaking. SDS-PAGE and analysis steps were carried out as above. For quantitative measurements, fluorescently labeled band intensities were calculated using Imagequant (Cytiva), and normalized to the corresponding band in the inhibitor free control lane. cABPP plots were prepared and analyzed using SigmaPlot 14.0 (Systat).
Further cABPP studies were undertaken using platelet lysates to provide a more physiologically realistic environment. […]

U87 glioblastoma cells = experiment: Matrigel invasion assay; type: cell-based, human; details: 20 μM inhibitor, 4 h
Method: The Matrigel invasion assay was used to assess the effects of the compounds of the invention on cancer cell aggression. This is an in cellulo model of cell invasion through a HSPG rich basement membrane. The ability of cells to migrate through transwell inserts coated with Matrigel (an ECM secretion from Engelbreth-Holm-Swarm mouse sarcoma cells) correlates well with their in vivo invasive potential (Hall et al., Methods Mol Biol, 1070, 1-11 (2014)).
1×10^5 U87 cells in 200 μL DMEM media (without serum) were seeded onto the top chamber of a Matrigel-coated Boyden transwell filter, alongside 20 μM HPSE inhibitor (or PBS control). Cells in the upper chamber were separated by Matrigel from a lower chamber containing 600 μL DMEM, supplemented with 10% FBS. Plates were incubated at 37° C. for 4 h, before fixing cells in 4% (v/v) paraformaldehyde, and staining with 0.5% (w/v) crystal violet. Matrigel and non-migrating cells in the upper side of the Boyden filter were removed by swabbing, then invading cells on the bottom side of the transwell filter imaged for analysis. 10 randomly selected microscopic fields were recorded, and cell invasion calculated using ImageJ, by quantitating the percentage of the field stained by crystal violet. Graphs were plotted using RStudio.
The Matrigel invasion assay was used to assess the effects of the compounds of the invention on cancer cell aggression. […]

inhibition of HPSE degradation of 35S-labelled HSPGs (HPSE [2]; 200 ng recombinant HPSE, pH 6.0, 5 h): robust, dose dependent inhibition
concentration giving comparable levels of inhibition (HPSE [2]; HSPG digest, recombinant HPSE): 1 µM
fold more potent than reference inhibitors #98 (10) and OGT2115 (11) (HPSE [3]): approximately 2 fold
IC50 (human platelet HPSE): ~56 nM
Compound: CC(=O)N[C@H]1[C@@H](O[C@H]2[C@H](O)[C@@H](O)[C@@H]3O[C@@H]3[C@@H]2C(=O)O)O[C@H](COS(=O)(=O)O)[C@@H](O)[C@@H]1O [Compound 3, 4-O-(2-N-acetyl-2-deoxy-6-O-sulfo-D-glucopyranosyl)-glucurono-cyclophellitol]
binding mode in HPSE active site cleft (HPSE [1]): covalent linkages between their pseudo-anomeric carbons and the enzyme nucleophile Glu343
HPSE inhibition (abrogation of labelling by ABP 7) (HPSE [4]; 1 h preincubation at 37° C., pH 5.5, 100 nM ABP 7): inhibited HPSE at nanomolar concentrations
potency against HPSE relative to other compounds (HPSE [4]; cABPP Assay 1): greater potency against HPSE than 2 and 4
Matrigel invasion (U87 glioblastoma cells): significantly reduced Matrigel invasion

Reference: patent US20250276993A1, “PSEUDO-DISACCHARIDE COMPOUNDS” (UNIVERSITEIT LEIDEN, priority 2022, published 2025)
